In ChEMBL document CHEMBL4706653, “Ultra-short lipopeptides against gram-positive bacteria while alleviating antimicrobial resistance” (Eur J Med Chem, 2021):
The source made the active and inactive calls. The calls are words filed in the database; no cut-off is given here. Residues, ends and D or L forms follow the SMILES beside them. *: point of attachment. Myristoyl = CCCCCCCCCCCCCC(=O)*; Lauroyl = CCCCCCCCCCCC(=O)*

Tests used:
Staphylococcus aureus [1] = assay: Ratio of MIC for antimicrobial activity against Staphylococcus aureus ATCC 25923 in presence of 2.5% serum to MIC for antimicrobial activity against Staphylococcus aureus ATCC 25923 in absence of serum; type: functional
[2] = Stability in mouse serum assessed as parent compound remaining at volume ratio of 1:19 measured after 6 hrs by RP-HPLC analysis; type: ADME, cell-free; settings: read-out: Stabilty
Staphylococcus aureus [3] = assay: Antimicrobial activity against Staphylococcus aureus ATCC 25923 assessed as reduction in bacterial growth at 0.5 times MIC preincubated for 4 hrs followed by replating on MHB agar and measured after 24 hrs by time kill assay; type: functional, organism-based; settings: time 28.0 hrs
Staphylococcus aureus [4] = assay: Antimicrobial activity against Staphylococcus aureus ATCC 25923 assessed as bacterial killing at 4 times MIC preincubated for 30 mins followed by replating on MHB agar and measured after 24 hrs by time kill assay; type: functional, organism-based; settings: time 24.5 hrs
Staphylococcus aureus [5] = assay: Antimicrobial activity against Staphylococcus aureus ATCC 25923 assessed as reduction in bacterial growth at 0.5 to 1 times MIC preincubated for 4 hrs followed by replating on MHB agar and measured after 24 hrs by time kill assay; type: functional, organism-based; settings: time 28.0 hrs
Cell membrane [6] = assay: Induction of cytoplasmic membrane disruption in Staphylococcus aureus ATCC 25923 measured for 15 mins by DiSC3-5 dye based fluorescence assay
Cell membrane [7] = assay: Induction of membrane disruption in Staphylococcus aureus ATCC 25923 assessed as PI-positive cells at 4 times MIC measured after 30 mins by propidium iodide staining based flow cytometry relative to control
Cell membrane [8] = assay: Induction of membrane disruption in Staphylococcus aureus ATCC 25923 assessed as formation of dent at 2 to 4 times MIC measured after 2 to 4 hrs by SEM analysis; type: subcellular; settings: time 2-4 hrs
HEK-293T = assay: Cytotoxicity against HEK293T cells assessed as reduction in cell viability at 64 to 128 uM measured after 24 hrs by MTT assay; type: cell-based; settings: human, dose 64-128 µM
[9] = Stability in mouse serum assessed as drug degradation at volume ratio of 1:19 measured after 6 hrs by RP-HPLC analysis; type: ADME, cell-free; settings: read-out: Drug degradation
Staphylococcus aureus [10] = assay: Antimicrobial activity against Staphylococcus aureus ATCC 25923 assessed as bacterial killing at 2 to 4 times MIC preincubated for 30 mins followed by replating on MHB agar and measured after 24 hrs by time kill assay; type: functional, organism-based; settings: time 24.5 hrs
Staphylococcus aureus [11] = assay: Antimicrobial activity against Staphylococcus aureus ATCC 25923 assessed as bacterial killing at MIC preincubated for 1 hr followed by replating on MHB agar and measured after 24 hrs by time kill assay; type: functional, organism-based; settings: time 25.0 hrs
Staphylococcus aureus [12] = assay: Antimicrobial activity against Staphylococcus aureus ATCC 25923 assessed as bacterial killing at 0.5 times MIC preincubated for 4 hrs followed by replating on MHB agar and measured after 24 hrs by time kill assay; type: functional, organism-based; settings: time 28.0 hrs
[13] = Cytotoxicity against HEK293T cells assessed as cell viability at 128 uM measured after 24 hrs by MTT assay relative to control; type: cell-based, HEK-293T; settings: human, read-out: Activity
[14] = Toxicity in BALB/c mouse assessed as effect on body weight at 20 to 80 mg/kg, ip administered as single dose measured for 5 days; type: organism-based; settings: in vivo, 120 h, dose 20-80 mg/kg, time 5 day
[15] = Toxicity in BALB/c mouse assessed as ruffled fur at 80 mg/kg, ip administered as single dose measured for 5 days; type: organism-based; settings: in vivo, 120 h, time 5 day
[16] = Toxicity in BALB/c mouse assessed as effect on motility at 80 mg/kg, ip administered as single dose measured for 5 days; type: organism-based; settings: in vivo, 120 h, time 5 day
[17] = Toxicity in BALB/c mouse assessed as inflammatory cell infiltration in liver at 20 to 40 mg/kg, ip administered as single dose measured after 5 days; type: organism-based; settings: in vivo, 120 h, dose 20-40 mg/kg, time 5 day
[18] = Toxicity in BALB/c mouse assessed as swelling of renal tubular epithelial cells at 80 mg/kg, ip administered as single dose measured after 5 days; type: organism-based; settings: in vivo, 120 h, time 5 day
[19] = Toxicity in BALB/c mouse assessed as eosinophilic mass in the renal tubular lumen at 80 mg/kg, ip administered as single dose measured after 5 days; type: organism-based; settings: in vivo, 120 h, time 5 day
[20] = Toxicity in BALB/c mouse assessed as inflammatory cell infiltration in kidney at 80 mg/kg, ip administered as single dose measured after 5 days; type: organism-based; settings: in vivo, 120 h, time 5 day
Staphylococcus aureus [21] = assay: Antimicrobial activity against Staphylococcus aureus ATCC 25923 infected in neutropenia BALB/c mouse assessed as reduction in lung bacterial load at 10 to 20 mg/kg, ip administered staring from 2 hrs post infection and measured 8 hrs post-infected; type: functional, organism-based; settings: dose 10-20 mg/kg, time 6.0 hrs
Staphylococcus aureus [22] = assay: Antimicrobial activity against Staphylococcus aureus ATCC 25923 infected in neutropenia BALB/c mouse assessed as reduction in bacterial load in spleen at 10 to 20 mg/kg, ip administered staring from 2 hrs post infection and measured 8 hrs post-infected; type: functional, organism-based; settings: dose 10-20 mg/kg, time 6.0 hrs
Staphylococcus aureus [23] = assay: Antimicrobial activity against Staphylococcus aureus ATCC 25923 infected in neutropenia BALB/c mouse assessed as reduction in bacterial load in kidney at 10 to 20 mg/kg, ip administered staring from 2 hrs post infection and measured 8 hrs post-infected; type: functional, organism-based; settings: dose 10-20 mg/kg, time 6.0 hrs
Staphylococcus aureus [24] = assay: Antimicrobial activity against Staphylococcus aureus ATCC 25923 infected in neutropenia BALB/c mouse assessed as reduction in bacterial load in liver at 10 to 20 mg/kg, ip administered staring from 2 hrs post infection and measured 8 hrs post-infected; type: functional, organism-based; settings: dose 10-20 mg/kg, time 6.0 hrs
Staphylococcus aureus [25] = assay: Antimicrobial activity against Staphylococcus aureus ATCC 25923 infected in neutropenia BALB/c mouse assessed as reduction in lung bacterial load at 10 mg/kg, ip administered staring from 2 hrs post infection and measured 8 hrs post-infected in presence of ciprofloxacin; type: functional, organism-based; settings: time 6.0 hrs
Staphylococcus aureus [26] = assay: Antimicrobial activity against Staphylococcus aureus ATCC 25923 infected in neutropenia BALB/c mouse assessed as reduction in bacterial load in spleen at 10 mg/kg, ip administered staring from 2 hrs post infection and measured 8 hrs post-infected in presence of ciprofloxacin; type: functional, organism-based; settings: time 6.0 hrs
Staphylococcus aureus [27] = assay: Antimicrobial activity against Staphylococcus aureus ATCC 25923 infected in neutropenia BALB/c mouse assessed as reduction in bacterial load in kidney at 10 mg/kg, ip administered staring from 2 hrs post infection and measured 8 hrs post-infected in presence of ciprofloxacin; type: functional, organism-based; settings: time 6.0 hrs
Staphylococcus aureus [28] = assay: Antimicrobial activity against Staphylococcus aureus ATCC 25923 infected in neutropenia BALB/c mouse assessed as reduction in bacterial load in liver at 10 mg/kg, ip administered staring from 2 hrs post infection and measured 8 hrs post-infected in presence of ciprofloxacin; type: functional, organism-based; settings: time 6.0 hrs
Mus musculus [29] = assay: Antiinflammatory activity in Staphylococcus aureus ATCC 25923 infected neutropenia BALB/c mouse assessed as reduction in TNFalpha level in serum at 10 to 20 mg/kg, ip administered staring from 2 hrs post infection and measured 8 hrs post-infected; type: functional, organism-based; settings: dose 10-20 mg/kg, time 6.0 hrs
Mus musculus [30] = assay: Antiinflammatory activity in Staphylococcus aureus ATCC 25923 infected neutropenia BALB/c mouse assessed as reduction in TNFalpha level in serum at 10 mg/kg, ip administered staring from 2 hrs post infection and measured 8 hrs post-infected in presence of ciprofloxacin; type: functional, organism-based; settings: time 6.0 hrs

Which Ratio (Staphylococcus aureus [1]) does the source give for `CCCCCCCCCCCC(=O)N[C@@H](CCCNC(=N)N)C(=O)N[C@@H](CCCNC(=N)N)C(=O)N[C@@H](Cc1c[nH]c2ccccc12)C(N)=O` (Lauroyl-Arg-Arg-Trp-NH2) here?
Its Ratio is 8.

What about the remaining at 6 h [2] of the same compound?
Its remaining at 6 h is 70%.

What about the Activity (Staphylococcus aureus [3]) of the same compound?
Its Activity is “Active”.

And the Activity (Staphylococcus aureus [4])?
The Activity was “Active”.

What about the Activity (Staphylococcus aureus [5]) of the same compound?
The Activity was “inactive”.

And the Activity (Cell membrane [6])?
The Activity was “Dose-dependent effect”.

And the Activity (Cell membrane [7])?
The Activity was 77.2%.

And the Activity (Cell membrane [8])?
The Activity was “Active”.

What about the Activity (HEK-293T) of the same compound?
The Activity was “Toxic”.

What does the source list for `CCCCCCCCCCCCCC(=O)N[C@@H](CCCNC(=N)N)C(=O)N[C@@H](Cc1c[nH]c2ccccc12)C(=O)N[C@@H](Cc1c[nH]c2ccccc12)C(N)=O` (Myristoyl-Arg-Trp-Trp-NH2)?
metabolised at 6 h [9]: 70%; Activity (Staphylococcus aureus [10]): Active; Activity (Staphylococcus aureus [11]): Active; Activity (Staphylococcus aureus [12]): inactive; Activity (Cell membrane [8]): Active; viability at 24 h, 128 µM [13]: > 80%; Activity [14]: Toxic; Activity [15]: Toxic; Activity [16]: Toxic; Activity [17]: Non-Toxic; Activity [18]: Toxic; Activity [19]: Toxic; Activity [20]: Toxic; Activity (Staphylococcus aureus [21]): Active; Activity (Staphylococcus aureus [22]): Active; Activity (Staphylococcus aureus [23]): Active; Activity (Staphylococcus aureus [24]): Active; Activity (Staphylococcus aureus [25]): Active; Activity (Staphylococcus aureus [26]): Active; Activity (Staphylococcus aureus [27]): Active; Activity (Staphylococcus aureus [28]): Active; Activity (Mus musculus [29]): Active; Activity (Mus musculus [30]): Active
